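Values below derive from 48-hour exposures of cells grown in 96-well plates, with endpoints linearly interpolated between the two concentrations bracketing the appropriate inhibition level. GI50 = concentration required for 50% inhibition of growth. TGI marks complete inhibition of growth.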
How the values were obtained:
Assay in all cases: NCI-60 cell line screen, 48 h
[1] = tested on: UACC-257 melanoma
[2] = tested on: PC-3 prostate
[3] = tested on: TK-10 renal
[4] = tested on: NCI-H226 lung
[5] = tested on: MOLT-4 leukemia
[6] = tested on: DU-145 prostate
[7] = tested on: NCI/ADR-RES ovarian
[8] = tested on: SNB-19 CNS
[9] = tested on: HCC-2998 colon
[10] = tested on: HOP-92 NSCLC

SMILES | GI50 [1] | TGI [1] | GI50 [2] | TGI [2] | GI50 [3] | TGI [3] | GI50 [4] | TGI [4] | GI50 [5] | TGI [5] | GI50 [6] | TGI [6] | GI50 [7] | TGI [7] | GI50 [8] | TGI [8] | GI50 [9] | TGI [9] | GI50 [10] | TGI [10]
O=c1nc2n(-c3ccc(Cl)cc3)c3ccc([N+](=O)[O-])cc3cc-2c(=O)[nH]1 | 23.4 µM | 62.5 µM | 23.5 µM | 78.5 µM | 25.7 µM | 62.7 µM | 21.1 µM | 60.5 µM | 13.4 µM | > 100 µM | 29.1 µM | 79.5 µM | 49.6 µM | > 100 µM | 17.8 µM | 83.3 µM | 22.3 µM | 54.3 µM | – | –
O=C(CNc1ccc2c(c1)C(=O)c1ccccc1C2=O)Nc1ccc2c(c1)C(=O)c1ccccc1C2=O | 1.49 µM | 2.99 µM | 1.29 µM | 3.48 µM | 1.7 µM | 3.17 µM | 0.568 µM | 1.44 µM | – | – | 1.53 µM | 2.87 µM | 0.819 µM | 4.68 µM | 1.45 µM | 2.9 µM | 1.58 µM | 2.99 µM | 1.39 µM | 2.98 µM
N#CC(C(=O)CCC(=O)C(C#N)c1ccccc1)c1ccccc1 (stereo not drawn) | – | > 100 µM | – | – | – | > 100 µM | – | > 100 µM | – | > 100 µM | – | – | – | – | – | > 100 µM | – | > 100 µM | – | > 100 µM
O=C(CC1(O)C(=O)Nc2c(Cl)ccc(Cl)c21)c1ccc2ccccc2c1 (stereo not drawn) | – | 25.3 µM | – | – | – | 44.4 µM | – | 39.1 µM | – | 38.9 µM | – | – | – | – | – | 53 µM | – | 35.6 µM | – | –
Clc1cc(Cc2cc(Cl)c(Cl)c3c2OCOC3)c2c(c1Cl)COCO2 | – | > 100 µM | – | – | – | > 100 µM | – | 72.9 µM | – | > 100 µM | – | – | – | – | – | > 100 µM | – | > 100 µM | – | 41.8 µM
CN(C(=O)C12C3C4C1C1C4(C(=O)C45C6C7C4C4C5C6C74C)C3C12C)C(C)(C)C (stereo not drawn) | – | > 100 µM | – | – | – | > 100 µM | – | > 100 µM | – | > 100 µM | – | – | – | – | – | > 100 µM | – | > 100 µM | – | > 100 µM
CC1(c2cccc3ccccc23)OC(=O)c2ccccc21 (stereo not drawn) | – | 54.5 µM | – | – | – | > 100 µM | – | 48.3 µM | – | 55.6 µM | – | – | – | – | – | > 100 µM | – | 35.6 µM | – | 36.5 µM
O=C(CO)CC(=O)C(=O)Nc1ccccc1 | – | > 100 µM | – | – | – | > 100 µM | – | > 100 µM | – | > 100 µM | – | – | – | – | – | > 100 µM | – | > 100 µM | – | > 100 µM
COc1cc(C)c(Cl)cc1C1=NN(c2ccc(S(N)(=O)=O)cc2)C(/C=C/c2ccccc2)C1 (stereo not drawn) | 3.58 µM | 20.5 µM | 3.11 µM | 13.8 µM | 3.25 µM | 11.5 µM | 1.53 µM | 3.46 µM | 3.37 µM | 64.4 µM | 3.91 µM | 16.7 µM | 3.46 µM | 37.7 µM | 8.08 µM | > 100 µM | 2.57 µM | 8.49 µM | – | –
O=C(c1ccco1)c1nc2cc(Cl)ccc2[n+]([O-])c1C(F)(F)F | 4.07 µM | 32.9 µM | 13.7 µM | 41.4 µM | 44.1 µM | > 100 µM | 33.2 µM | > 100 µM | 27.1 µM | 66.6 µM | 76.5 µM | > 100 µM | 52.4 µM | > 100 µM | 69 µM | > 100 µM | 18.5 µM | 34.9 µM | – | –

From PubChem BioAssay (NCI)
